Results as given in PubChem BioAssay (NCI).
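1) Cells in 96-well plates. 2) Compound, 48 h, 5 concentrations. 3) Linear interpolation between surrounding doses. 4) Unreached endpoint = highest concentration. TGI denotes the concentration required for complete inhibition of growth.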

Experiments:
Assay in all cases: NCI tumour cell line growth inhibition, 48 h
[1] = test system: HS 578T breast
[2] = test system: RXF 393 renal
[3] = test system: EKVX NSCLC
[4] = test system: SK-MEL-2 melanoma
[5] = test system: KM12 colon
[6] = test system: SNB-75 CNS
[7] = test system: SW-620 colon
[8] = test system: U251 CNS
[9] = test system: MOLT-4 leukemia
[10] = test system: DU-145 prostate
[11] = test system: ACHN renal
[12] = test system: SNB-19 CNS
[13] = test system: NCI-H460 lung
[14] = test system: UACC-62 melanoma
[15] = test system: CCRF-CEM leukemia
[16] = test system: HCT-116 colon
[17] = test system: PC-3 prostate
[18] = test system: HOP-92 NSCLC
[19] = test system: HCT-15 colon
[20] = test system: NCI-H226 lung
[21] = test system: OVCAR-4 ovarian
[22] = test system: SK-MEL-5 melanoma
[23] = test system: SF-268 CNS
[24] = test system: UO-31 renal
[25] = test system: SR leukemia
[26] = test system: A549 NSCLC
[27] = test system: SF-539 CNS
[28] = test system: SN12C renal
[29] = test system: HOP-62 NSCLC
[30] = test system: CAKI-1 renal
[31] = test system: MALME-3M melanoma
[32] = test system: A498 renal
[33] = test system: K-562 leukemia
[34] = test system: TK-10 renal
[35] = test system: NCI/ADR-RES ovarian
[36] = test system: IGROV1 ovarian
[37] = test system: SF-295 CNS
[38] = test system: UACC-257 melanoma
[39] = test system: MDA-N
[40] = test system: NCI-H522 lung
[41] = test system: MDA-MB-231 breast
[42] = test system: M14 melanoma
[43] = test system: HCC-2998 colon
[44] = test system: OVCAR-3 ovarian
[45] = test system: COLO 205 colon
[46] = test system: 786-0 renal
[47] = test system: NCI-H23 lung
[48] = test system: RPMI-8226 leukemia
[49] = test system: OVCAR-8 ovarian
[50] = test system: T-47D breast
[51] = test system: OVCAR-5 ovarian
[52] = test system: BT-549 breast
[53] = test system: HT29 colon
[54] = test system: SK-MEL-28 melanoma
[55] = test system: MDA-MB-435
[56] = test system: SK-OV-3 ovarian
[57] = test system: MCF7 breast
[58] = test system: LOX IMVI melanoma
[59] = test system: HL-60(TB) leukemia

Measured: TGI

COC(=O)c1cc(=O)n(-c2ccc3nn(C)nc3c2)cc1C(=O)OC
not listed: [58] | [59]
> 100 µM: all other assays above

O=C(O)c1ccc(C(O)(c2ccccc2)c2ccccc2)cc1
not listed: [2] | [4] | [6] | [7] | [13] | [18] | [20] | [27] | [32] | [43] | [53]
> 100 µM: all other assays above
